# Measurements as given in patent publication US10407410B2, “Pyridin-3-yl acetic acid derivatives as inhibitors of human immunodeficiency virus replication” (priority 2016, dated 2019).
# Tested on: NL-RLuc virus (HIV)
# Assay: Inhibition of HIV replication (NL-RLuc luciferase reporter virus in MT-2 cells)
# Type: cell-based
# Settings: Human immunodeficiency virus 1, MT2, 120 h
# From the text: Inhibition of HIV Replication
# A recombinant NL-RLuc proviral clone was constructed in which a section of the nef gene from NL4-3 was replaced with the Renilla Luciferase gene. This virus is fully infectious and can undergo multiple cycles of replication in cell culture. In addition, the luciferous reporter provides a simple and easy method for quantitating the extent of virus growth and consequently, the antiviral activity of test compounds. The plasmid pNLRLuc contains the proviral NL-Rluc DNA cloned into pUC18 at the PvuII site. The NL-RLuc virus was prepared by transfection of 293T cells with the plasmid pNLRLuc. Transfections were performed using the LipofectAMINE PLUS kit from Invitrogen (Carlsbad, Calif.) according to the manufacturer and the virus generated was titered in MT-2 cells. For susceptibility analyses, the titrated virus was used to infect MT-2 cells in the presence of compound, and after 5 days of incubation, cells were processed and quantitated for virus growth by the amount of expressed luciferase. Assay media was RPMI 1640 supplemented with 10% heat inactivated fetal bovine serum (FBS), 100 units/ml penicillin G/100 units/ml streptomycin, 10 mM HEPES buffer pH 7.55 and 2 mM L-glutamine. The results from at least 2 experiments were used to calculate the EC50 values. Luciferase was quantitated using the Dual Luciferase kit from Promega (Madison, Wis.). Susceptibility of viruses to compounds was determined by incubation in the presence of serial dilutions of the compound. The 50% effective concentration (EC50) was calculated by using the exponential form of the median effect equation where (Fa)=1/[1+(ED50/drug conc.)^m] (Johnson V A, Byington R T. Infectivity Assay. In Techniques in HIV Research. ed. Aldovini A, Walker B D. 71-76. New York: Stockton Press. 1990).
row,Compound,EC50 [nM]
1,"Cc1nc(C)c([C@H](OC(C)(C)C)C(=O)O)c(N2CCC(C)(C)CC2)c1-c1ccc2c(c1)CC/C(=C\c1ccc(F)cc1)C2 [Example 25, (S,E)-2-(tert-Butoxy)-2-(4-(4,4-dimethylpiperidin-1-yl)-5-(6-(4-fluorobenzylidene)-5,6,7,8-tetrahydronaphthalen-2-yl)-2,6-dimethylpyridin-3-yl)acetic acid]",5
2,"Cc1nc(C)c([C@H](OC(C)(C)C)C(=O)O)c(N2CCC(C)(C)CC2)c1-c1ccc2c(c1)CCC(Cc1ccc(F)cc1)C2 (stereo partly drawn) [Example 26, (2S)-2-(tert-Butoxy)-2-(4-(4,4-dimethylpiperidin-1-yl)-5-(6-(4-fluorobenzyl)-5,6,7,8-tetrahydronaphthalen-2-yl)-2,6-dimethylpyridin-3-yl)acetic acid]",10
3,"Cc1nc(C)c([C@H](OC(C)(C)C)C(=O)O)c(N2CCC(C)(C)CC2)c1-c1ccc2c(c1)CCC(Oc1ccc(F)cc1)C2 (stereo partly drawn) [Example 27, (2S)-2-(tert-Butoxy)-2-(4-(4,4-dimethylpiperidin-1-yl)-5-(6-(4-fluorophenoxy)-5,6,7,8-tetrahydronaphthalen-2-yl)-2,6-dimethylpyridin-3-yl)acetic acid]",6
4,"Cc1nc(C)c([C@H](OC(C)(C)C)C(=O)O)c(N2CCC(C)(C)CC2)c1-c1ccc2c(c1)CC[C@@H](Cc1ccc(F)c(F)c1)O2 [Example 28, (S)-2-tert-Butoxy-2-(5-((S)-2-(3,4-difluorobenzyl)chroman-6-yl)-4-(4,4-dimethylpiperidin-1-yl)-2,6-dimethylpyridin-3-yl)acetic acid]",2
5,"Cc1nc(C)c([C@H](OC(C)(C)C)C(=O)O)c(N2CCC(C)(C)CC2)c1-c1ccc2c(c1)CC[C@H](Cc1ccc(F)c(F)c1)O2 [Example 29, (S)-2-tert-Butoxy-2-(5-((R)-2-(3,4-difluorobenzyl)chroman-6-yl)-4-(4,4-dimethylpiperidin-1-yl)-2,6-dimethylpyridin-3-yl)acetic acid]",5
6,"Cc1ccc(C[C@@H]2CCc3cc(-c4c(C)nc(C)c([C@H](OC(C)(C)C)C(=O)O)c4N4CCC(C)(C)CC4)ccc3O2)c(F)c1 [Example 30, (S)-2-tert-Butoxy-2-(4-(4,4-dimethylpiperidin-1-yl)-5-((S)-2-(2-fluoro-4-methylbenzyl)chroman-6-yl)-2,6-dimethylpyridin-3-yl)acetic acid]",5
7,"Cc1ccc(C[C@H]2CCc3cc(-c4c(C)nc(C)c([C@H](OC(C)(C)C)C(=O)O)c4N4CCC(C)(C)CC4)ccc3O2)c(F)c1 [Example 31, (S)-2-tert-Butoxy-2-(4-(4,4-dimethylpiperidin-1-yl)-5-((R)-2-(2-fluoro-4-methylbenzyl)chroman-6-yl)-2,6-dimethylpyridin-3-yl)acetic acid]",3
8,"Cc1nc(C)c([C@H](OC(C)(C)C)C(=O)O)c(N2CCC(C)(C)CC2)c1-c1ccc2c(c1)CC[C@@H](Cc1ccccc1)O2 [Example 32, (S)-2-(5-((S)-2-Benzylchroman-6-yl)-4-(4,4-dimethylpiperidin-1-yl)-2,6-dimethylpyridin-3-yl)-2-tert-butoxyacetic acid]",2
9,"Cc1nc(CO)c(-c2ccc3c(c2)CC[C@@H](Cc2ccccc2)O3)c(N2CCC(C)(C)CC2)c1[C@H](OC(C)(C)C)C(=O)O [Example 33, (S)-2-(5-((S)-2-Benzylchroman-6-yl)-4-(4,4-dimethylpiperidin-1-yl)-6-(hydroxymethyl)-2-methylpyridin-3-yl)-2-tert-butoxyacetic acid]",7
10,"Cc1nc(C)c([C@H](OC(C)(C)C)C(=O)O)c(N2CCC(C)(C)CC2)c1-c1ccc2c(c1)CC[C@@H](Cc1ccc(F)cc1)O2 [Example 34, (S)-2-tert-Butoxy-2-(4-(4,4-dimethylpiperidin-1-yl)-5-((S)-2-(4-fluorobenzyl)chroman-6-yl)-2,6-dimethylpyridin-3-yl)acetic acid]",2
11,"Cc1nc(C)c([C@H](OC(C)(C)C)C(=O)O)c(N2CCC(C)(C)CC2)c1-c1ccc2c(c1)CC[C@H](Cc1ccc(F)cc1)O2 [Example 35, (S)-2-tert-Butoxy-2-(4-(4,4-dimethylpiperidin-1-yl)-5-((R)-2-(4-fluorobenzyl)chroman-6-yl)-2,6-dimethylpyridin-3-yl)acetic acid]",3
12,"Cc1nc(CO)c(-c2ccc3c(c2)CC[C@@H](Cc2ccc(F)cc2)O3)c(N2CCC(C)(C)CC2)c1[C@H](OC(C)(C)C)C(=O)O [Example 36, (S)-2-(tert-Butoxy)-2-(4-(4,4-dimethylpiperidin-1-yl)-5-((S)-2-(4-fluorobenzyl)chroman-6-yl)-6-(hydroxymethyl)-2-methylpyridin-3-yl)acetic acid]",2
13,"Cc1nc(CO)c(-c2ccc3c(c2)CC[C@H](Cc2ccc(F)cc2)O3)c(N2CCC(C)(C)CC2)c1[C@H](OC(C)(C)C)C(=O)O [Example 37, (S)-2-tert-Butoxy-2-(4-(4,4-dimethylpiperidin-1-yl)-5-((R)-2-(4-fluorobenzyl)chroman-6-yl)-6-(hydroxymethyl)-2-methylpyridin-3-yl)acetic acid]",1
14,"Cc1nc(C)c([C@H](OC(C)(C)C)C(=O)O)c(N2CCC(C)(C)CC2)c1-c1ccc2c(c1)CC[C@](C)(Cc1ccc(F)cc1)O2 [Example 38, (S)-2-tert-Butoxy-2-(4-(4,4-dimethylpiperidin-1-yl)-5-((R)-2-(4-fluorobenzyl)-2-methylchroman-6-yl)-2,6-dimethylpyridin-3-yl)acetic acid]",4
15,"Cc1nc(C)c([C@H](OC(C)(C)C)C(=O)O)c(N2CCC(C)(C)CC2)c1-c1ccc2c(c1)CC[C@@](C)(Cc1ccc(F)cc1)O2 [Example 39, (S)-2-tert-Butoxy-2-(4-(4,4-dimethylpiperidin-1-yl)-5-((S)-2-(4-fluorobenzyl)-2-methylchroman-6-yl)-2,6-dimethylpyridin-3-yl)acetic acid]",3
16,"Cc1nc(C)c([C@H](OC(C)(C)C)C(=O)O)c(N2CCC(C)(C)CC2)c1-c1ccc2c(c1)CCC(COc1ccccc1F)O2 (stereo partly drawn) [Example 40, (2S)-2-tert-Butoxy-2-(4-(4,4-dimethylpiperidin-1-yl)-5-(2-((2-fluorophenoxy)methyl)chroman-6-yl)-2,6-dimethylpyridin-3-yl)acetic acid]",4
17,"Cc1nc(C)c([C@H](OC(C)(C)C)C(=O)O)c(N2CCC(C)(C)CC2)c1-c1ccc2c(c1)CCC(COc1cccc(F)c1F)O2 (stereo partly drawn) [Example 41, (2S)-2-tert-Butoxy-2-(5-(2-((2,3-difluorophenoxy)methyl)chroman-6-yl)-4-(4,4-dimethylpiperidin-1-yl)-2,6-dimethylpyridin-3-yl)acetic acid]",3
18,"Cc1nc(C)c([C@H](OC(C)(C)C)C(=O)O)c(N2CCC(C)(C)CC2)c1-c1ccc2c(c1)CCC(c1ccc(F)cc1)O2 (stereo partly drawn) [Example 42, (2S)-2-tert-Butoxy-2-(4-(4,4-dimethylpiperidin-1-yl)-5-(2-(4-fluorophenyl)chroman-6-yl)-2,6-dimethylpyridin-3-yl)acetic acid]",7
19,"Cc1nc(CO)c(-c2ccc3c(c2)CCC(c2ccc(F)cc2)O3)c(N2CCC(C)(C)CC2)c1[C@H](OC(C)(C)C)C(=O)O (stereo partly drawn) [Example 43, (2S)-2-tert-Butoxy-2-(4-(4,4-dimethylpiperidin-1-yl)-5-(2-(4-fluorophenyl)chroman-6-yl)-6-(hydroxymethyl)-2-methylpyridin-3-yl)acetic acid]",7
20,"Cc1cccc(C2CCc3cc(-c4c(C)nc(C)c([C@H](OC(C)(C)C)C(=O)O)c4N4CCC(C)(C)CC4)ccc3O2)n1 (stereo partly drawn) [Example 44, (2S)-2-tert-Butoxy-2-(4-(4,4-dimethylpiperidin-1-yl)-2,6-dimethyl-5-(2-(6-methylpyridin-2-yl)chroman-6-yl)pyridin-3-yl)acetic acid]",8
21,"Cc1cccc(C2CCc3cc(-c4c(CO)nc(C)c([C@H](OC(C)(C)C)C(=O)O)c4N4CCC(C)(C)CC4)ccc3O2)n1 (stereo partly drawn) [Example 45, (2S)-2-tert-Butoxy-2-(4-(4,4-dimethylpiperidin-1-yl)-6-(hydroxymethyl)-2-methyl-5-(2-(6-methylpyridin-2-yl)chroman-6-yl)pyridin-3-yl)acetic acid]",7
